Measurements as given in patent publication US7395112B2, “Method and apparatus for treating tumors using low strength electric fields” (priority 2002, dated 2008).

Tests used:
[1] = test system: DA3 mammary adenocarcinoma; test: LEFCT-EC in mice bearing DA3 mammary adenocarcinoma; type: in vivo, BALB/c mice
Experimental: Animals: BALB/c female mice between the ages of 8 to 12 weeks obtained from the breeding colony of Tel-Aviv University, Israel were used in vivo tumor therapy experiments. Animal care and experimentation was carried out in accordance with Tel-Aviv University guidelines.
Tumor cell line: The highly metastatic, poorly immunogenic mammary adenocarcinoma cell line DA3 (Lopez D M. et al., 1981. J Natl Cancer Inst. 66:191) was used to generate mammary carcinoma tumors in mice. Cells were grown in DMEM supplemented with 100 U/ml penicillin, 100 μg/ml streptomycin, 4 mM glutamine, 1 mM sodium pyruvate, 1% non-essential amino acids and 10% heat-inactivated fetal calf serum (FCS), and cultured at 37° C. in a humidified incubator in an atmosphere of 7% carbon dioxide and 93% air. Tumors of this cell line grown to 1 cm in diameter produce metastatic cells, mainly in the lungs.
Reagents: Taxol (Mead Johnson Oncology Products, A Bristol-Myers Squibb, USA), obtained as a sterile nonpyrogenic solution containing 6 mg/ml paclitaxel, 527 mg/ml of purified Cremophor EL (polyoxyethylated castor oil) and 49.7% (v/v) dehydrated ethanol; and bleomycin (MegaPharm, Israel) were the anti cancer drugs used.
Low-strength electric field enhanced cancer chemotherapy protocol: Mice were subjected to a single treatment of LEF-chemotherapy, once primary tumors reached 5 mm in diameter (about 60-70 mm^3) (11-17 days following subcutaneous tumor cell inoculation). Up to 100 μl of chemotherapeutic agents was injected into the tumor loci. The exposure to electric field was carried out as described above in Example 2 of the Examples section.
Effect of LEFCT-EC using bleomycin or taxol on the survival of DA3 mammary adenocarcinoma bearing nice: BALB/c mice bearing DA3 mammary adenocarcinoma were treated by LEF-chemotherapy with intratumoral taxol (20 mg/kg) (FIG. 19) or bleomycin (30 U/kg) (FIG. 20) administration and their survival rate was compared with that of mice treated only with LEF or chemotherapy.

[2] = test system: DA3 mammary adenocarcinoma; test: Rechallenge with DA3 cells of mice cured by LEFCT-EC with taxol; type: in vivo, BALB/c mice; conditions: challenged with 10^5 DA3 cells
Experimental: Effect of curative LEFCT-EC treatment with taxol on generation of anti DA3 tumor resistance: The resistance of mice previously cured of DA3 mammary carcinoma via LEFCT-EC treatment with taxol to tumor growth following challenge by inoculation with 10^5 DA3 cells 120-180 days following initial tumor inoculation was analyzed. […] The MSTs of first-time inoculated normal mice and challenged mice were 38.1 and 46.7 days, respectively. Thus, curative treatment of DA3 tumors via LEFCT-EC treatment with taxol has the capacity to induce significant protection against growth of such a tumor in cured mice challenged with a tumorigenic dose thereof.

B16-F10.9 melanoma [3] = test: LEFCT-EC in mice bearing subcutaneous B16-F10.9 melanoma; type: in vivo, C57BL/6 mice; conditions: for Tumor size (mean ± standard error): 7 days after treatment
Experimental: Animals: C57BL/6 male mice were obtained from the breeding colony of Tel-Aviv University, Israel. Mice were used at 8-12 weeks of age. Animal care and experimentation was carried out in accordance with Tel-Aviv University guidelines.
Melanoma tumor cell line: The highly metastatic, poorly immunogenic B16-F10.9 (F10.9) subclone of the B16 melanoma cell line was used to generate melanoma tumors in mice (Eisenbach L. et al., 1984. Int J Cancer 34:567). Cells were maintained in DMEM supplemented with 100 U/ml penicillin, 100 μg/ml streptomycin, 4 mM glutamine, 1 mM sodium pyruvate, 1% non-essential amino acids and 10% heat-inactivated fetal calf serum (FCS); and were cultured at 37° C. in a humidified incubator in an atmosphere of 7% carbon dioxide and 93% air.
Tumor generation protocol: F10.9 tumors were induced in C57BL/6 mice by subcutaneous injection of 2×10^5 F10.9 cells. Mice were subjected to experimental treatments once tumors reached 5 mm in diameter (about 60-70 mm^3). Chemotherapeutic drugs: The following chemotherapeutic drugs used were: cis-platinum (II) diamminedichloride (cisplatin; #P-4394, Sigma, Israel), dissolved in PBS for injections; Taxol (Mead Johnson Oncology Products, A Bristol-Myers Squibb, USA), obtained as a sterile nonpyrogenic solution containing 6 mg/ml paclitaxel, 527 mg/ml of purified Cremophor EL (polyoxyethylated castor oil) and 5-FU (Abic, Israel).
Low-strength electric field enhanced cancer therapy protocol: Mice were subjected to a single treatment of LEFCT-EC, once tumors reached 5 mm in diameter (11-17 days following tumor cell inoculation). Volumes of up to 100 μl of chemotherapeutic agents were injected into tumor loci, and exposures to electric fields were carried out 3-4 min following intratumoral injection of chemotherapeutic agents. To expose tumors to electric fields, stainless steel electrode needles (Karlsbader insect pins No 0. BioQuip Products, USA) soldered at their brassy ends with thin isolated copper wires were used. Electrodes were inserted to a depth of about 7 mm percutaneously into and in the immediate vicinity of the tumor; one cathode needle in the center of the tumor and three peripheral anodes, at a distance of about 5 mm from the cathode. The needles were connected to an electric pulse generator (Grass S48 Stimulator, USA). The field strength applied was about 40 V/cm; the repetition frequency, 500 Hz; and the pulse width, 180 μs. All mice were anesthetized prior to LEF treatment.
Statistical analysis: Statistical analysis of survival times (Kaplan-Meir test), survival comparisons between groups (Mantel-Cox test) and tumor volume differences between groups (Kolmogorov-Smirnov test) were performed using StatSoft Statistica statistical software. The 10-15% mortality rate in the 5 days following LEF or LEF-chemotherapy was considered as treatment-caused, therefore such cases of mortality were excluded.
Tumor volume determination: performed as described above in Example 1 of the Examples section.

[4] = test system: DA3 mammary adenocarcinoma; test: Winn assay: DA3 cells co-inoculated with splenocytes of cured mice; type: in vivo, BALB/c mice; conditions: 10^5 DA3 cells + 10^7 splenocytes of mice cured via LEFCT-EC with taxol
B16-F10.9 melanoma [5] = test: Surgery with taxol versus LEFCT-EC with taxol in B16-F10.9 melanoma; type: in vivo, C57BL/6 mice
Experimental: Comparison of surgery and LEFCT-EC: To compare the efficacy of LEFCT-EC to that of conventional surgery and chemotherapy treatments, C57BL/6 male mice (8-12 weeks old) were injected with 10^5 B16-F10.9 cells subcutaneously. Once the tumors reached 5 mm in diameter (11-17 days following inoculation), they were surgically removed. One experimental group received a single dose of taxol (20 mg/kg) subcutaneously in close proximity to the site of the operation one day following tumorectomy.

B16-F10.9 melanoma [6] = test: Rechallenge with B16-F10.9 cells of mice cured by LEFCT-EC; type: in vivo, C57BL/6 mice
Description: FIG. 17 is a data plot depicting the cumulative survival of mice previously bearing B16-F10.9 melanoma and cured by LEFCT-EC with cisplatin or taxol following challenge with B16-F10.9 melanoma cells. Mice cured by LEF-chemotherapy that survived for 120-180 days after initial tumor inoculation, were challenged with 2×10^5 B16-F10.9 cells subcutaneously.
Effect of curative LEFCT-EC treatment on generation of anti B16-F10.9 tumor resistance: The resistance of mice cured of B16-F10.9 melanoma by LEF-chemotherapy was analyzed by challenging such cured mice with a tumorigenic dose of B16-F 10.9 melanoma cells.

[7] = chemotherapy alone, intratumoral, no LEF

Question: Which results are given for `CC(=O)O[C@H]1C(=O)[C@@]2(C)[C@H]([C@H](OC(=O)c3ccccc3)[C@]3(O)C[C@H](OC(=O)[C@H](O)[C@@H](NC(=O)c4ccccc4)c4ccccc4)C(C)=C1C3(C)C)[C@]1(OC(C)=O)CO[C@@H]1C[C@@H]2O` [taxol, paclitaxel]?
Answer: survival time, Mean ([1]; LEF-chemotherapy with the drug): 73.8; survival time, Median ([1]; LEF-chemotherapy with the drug): 54.5; cure rate ([1]; LEF-chemotherapy, intratumoral taxol 20 mg/kg or bleomycin 30 U/kg, 180 days after tumor inoculation): 17%; survival time, Mean ([1]; drug alone, intratumoral): 43.9; survival time, Median ([1]; drug alone, intratumoral): 48; MST of challenged mice [2]: 46.7 days; Tumor size (mean ± standard error) (B16-F10.9 melanoma [3]; LEF-CT (drug + LEF), cisplatin 4 mg/kg, bleomycin 8 U/kg, 5-FU 150 mg/kg, taxol 20 mg/kg): 71 ± 25 mm^3; mean survival time (MST) (B16-F10.9 melanoma [3]; LEF-chemotherapy: intratumoral drug + LEF about 40 V/cm 12 min, 120 days (cisplatin) or 180 days (taxol, bleomycin) after inoculation): 83.5 days; cure rate / animals alive and free of visible tumor (B16-F10.9 melanoma [3]; LEF-chemotherapy, 180 days after tumor inoculation): 26%; effect of drug alone on survival (B16-F10.9 melanoma [3]; [7]): no effect; mean survival time (MST) (B16-F10.9 melanoma [3]; [7]): 36.7 days; Tumor size (mean ± standard error) (B16-F10.9 melanoma [3]; intratumoral drug injection alone, same doses): 927 ± 177 mm^3; LEFCT-EC treated mice that died two months and later after treatment with pulmonary metastatic foci, free of primary tumor (B16-F10.9 melanoma [3]; pooled statement for cisplatin, taxol or bleomycin): About 10%; Mean survival time [4]: 39 days; Tumor size ([4]; 14 days after inoculation): 143 µL; cure rate (B16-F10.9 melanoma [5]; LEF-chemotherapy with taxol): 26%; survival extension (B16-F10.9 melanoma [5]; LEF-chemotherapy with taxol): 84 days; MST (B16-F10.9 melanoma [5]; surgery + taxol 20 mg/kg subcutaneously): 55 days; cure rate (B16-F10.9 melanoma [5]; surgery + taxol 20 mg/kg subcutaneously one day after tumorectomy): 13%; MST of challenged mice (B16-F10.9 melanoma [6]; mice cured by LEFCT-EC with the drug, challenged with 2×10^5 B16-F10.9 cells): 73.2 days; challenged mice that did not develop tumor (B16-F10.9 melanoma [6]; mice previously treated by LEFCT-EC with taxol): about 23.5%
